Here are results for 35 compounds from patent US20250376461A1, “INDAZOLE DERIVATIVES FOR TREATING TRPM3-MEDIATED DISORDERS” (Katholieke Universiteit Leuven, priority 2022, published 2025).

SMILES strings stand for the structures. pIC50: −log10 of the molar value. Where only a bound is given, the exact number is not on record here.

The target in this assay is T1, mouse TRPM3α2 (mTRPM3) ion channel (Mus musculus, UniProt J9SQF3).
T1 construct: expressed in transfected cells; host or cells: flip-in HEK293
T1 sequence (J9SQF3 1-1709 isoform J9SQF3-12): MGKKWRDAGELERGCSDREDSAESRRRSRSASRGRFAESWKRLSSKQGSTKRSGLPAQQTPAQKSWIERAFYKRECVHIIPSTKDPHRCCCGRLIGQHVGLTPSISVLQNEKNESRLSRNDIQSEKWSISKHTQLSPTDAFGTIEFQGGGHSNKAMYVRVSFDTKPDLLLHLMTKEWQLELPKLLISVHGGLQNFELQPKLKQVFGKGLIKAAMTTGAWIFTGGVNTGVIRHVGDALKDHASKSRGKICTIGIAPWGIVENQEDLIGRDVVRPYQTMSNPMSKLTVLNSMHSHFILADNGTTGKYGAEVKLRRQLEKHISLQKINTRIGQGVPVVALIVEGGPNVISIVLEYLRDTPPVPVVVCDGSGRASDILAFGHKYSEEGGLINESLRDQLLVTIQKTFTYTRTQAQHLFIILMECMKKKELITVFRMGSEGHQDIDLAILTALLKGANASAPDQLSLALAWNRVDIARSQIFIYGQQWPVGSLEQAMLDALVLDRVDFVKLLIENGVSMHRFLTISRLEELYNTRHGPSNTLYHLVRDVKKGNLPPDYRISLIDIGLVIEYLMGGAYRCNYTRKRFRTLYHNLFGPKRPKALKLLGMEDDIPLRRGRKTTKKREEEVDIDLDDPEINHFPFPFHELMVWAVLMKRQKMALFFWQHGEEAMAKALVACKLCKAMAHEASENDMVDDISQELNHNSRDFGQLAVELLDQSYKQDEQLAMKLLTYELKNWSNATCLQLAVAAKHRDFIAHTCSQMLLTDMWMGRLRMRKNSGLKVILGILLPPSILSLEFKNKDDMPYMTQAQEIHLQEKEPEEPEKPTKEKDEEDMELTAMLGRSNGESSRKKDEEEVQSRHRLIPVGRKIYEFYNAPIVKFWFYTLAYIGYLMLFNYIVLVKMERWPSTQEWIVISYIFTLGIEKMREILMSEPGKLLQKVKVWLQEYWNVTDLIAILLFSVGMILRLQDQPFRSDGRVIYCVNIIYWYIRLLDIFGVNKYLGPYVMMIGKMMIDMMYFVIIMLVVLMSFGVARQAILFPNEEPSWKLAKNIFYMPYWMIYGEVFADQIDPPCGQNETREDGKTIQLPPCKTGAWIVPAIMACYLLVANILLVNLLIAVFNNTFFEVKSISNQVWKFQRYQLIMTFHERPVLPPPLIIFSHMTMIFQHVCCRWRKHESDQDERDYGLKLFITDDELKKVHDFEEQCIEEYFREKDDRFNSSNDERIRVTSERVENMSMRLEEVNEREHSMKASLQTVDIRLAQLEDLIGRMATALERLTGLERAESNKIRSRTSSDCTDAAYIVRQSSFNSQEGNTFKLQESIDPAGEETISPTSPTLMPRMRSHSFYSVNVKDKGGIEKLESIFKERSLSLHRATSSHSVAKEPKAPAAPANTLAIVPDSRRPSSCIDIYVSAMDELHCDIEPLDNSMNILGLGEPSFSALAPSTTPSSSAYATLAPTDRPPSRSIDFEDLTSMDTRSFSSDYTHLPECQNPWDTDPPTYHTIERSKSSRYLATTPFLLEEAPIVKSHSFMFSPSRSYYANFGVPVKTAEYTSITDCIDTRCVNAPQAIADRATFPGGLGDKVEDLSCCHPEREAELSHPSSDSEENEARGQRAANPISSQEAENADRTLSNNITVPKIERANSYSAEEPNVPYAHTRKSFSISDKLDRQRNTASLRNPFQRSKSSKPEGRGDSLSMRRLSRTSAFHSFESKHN
Briefly: TRPM3 ion channel driven Ca2+ uptake, Fluo-4 AM assay, mTRPM3alpha2 overexpressing flip-in HEK293 cells stimulated with pregnenolone sulfate (50 μM). It is filed as cell-based. The conditions noted are these: mTRPM3 overexpressing HEK293 cells stimulated with pregnenolone sulfate (50 μM), activity ranges A, B, C. As for the experimental part: Monitoring the TRPM3 Ion Channel Driven Ca2+ Uptake.
In order to monitor the inhibition of the mouse TRPM3α2 (mTRPM3) ion channel by the compounds of the invention, a cellular system making use of an mTRPM3alpha2 or hTRPM3 overexpressing cell line (flip-in HEK293) was used. The TRPM3 channel was stimulated/opened with Pregnenolone sulfate (PS) (50 μM) which results in Ca^2+ influx.
For mTRPM3, the intracellular Ca^2+ was measured with a Calcium responsive dye, Fluor-4 AM ester (Invitrogen). Cells were cultured until a confluence of 80-90%, washed with Versene (Invitrogen) and detached from the surface by a short incubation with 0.05% Trypsin (Invitrogen). The trypsination process was stopped by the addition of complete cell culture medium (DMEM, glutamax, 10% FCS, NEAA, Pen-Strep). Cells were collected and resuspended in Krebs buffer without Calcium at RT.
Prior the cell seeding (±2000 cells/well into a black, 384 well plate (Greiner)) the diluted compound was added in the assay plate, together with the PS dissolved in Krebs buffer containing Calcium. […] Directly after cell addition the plates were read on an Envision fluorescence reader (Perkin Elmer) by an Excitation of 485 nm and emission at 535 nm.
Channel inhibition was calculated compared to a non-PS stimulated control versus a condition stimulated with PS (50 μM) with vehicle. The ability of the compounds of the invention to inhibit this activity was determined as: Percentage inhibition=[1−((RFU determined for sample with test compound present−RFU determined for sample with positive control inhibitor) divided by (RFU determined in the presence of vehicle−RFU determined for sample with positive control inhibitor))]*100.
The activities of the Example compounds cpd 001-262 tested are depicted in the table below. All tested compounds show an activity in the Fluo-4 AM assay. The activity ranges A, B and C refer to IC50 values in the Fluo-4 AM assay as follows: “A”: IC50<1 μM; “B”: 1 μM≤IC50≤20 μM and “C”: IC50>20 μM.
On to `Cc1ncsc1COc1ccc2nn(C)c(C(=O)NC3CCN(C)C3)c2c1` (centres unmarked) [Cpd 075, 2-methyl-5-[(4-methyl-1,3-thiazol-5-yl)methoxy]-N-(1-methylpyrrolidin-3-yl)-2H-indazole-3-carboxamide], for which the pIC50 is 4.70 to 6.00. As for `Cn1nccc1COc1ccc2nn(C)c(C(=O)NC3(CO)CC3)c2c1` [Cpd 067, N-[1-(hydroxymethyl)cyclopropyl]-2-methyl-5-[(1-methyl-1H-pyrazol-5-yl)methoxy]-2H-indazole-3-carboxamide], the pIC50 was below 4.70. The result for `Cn1nccc1COc1ccc2nn(C)c(C(=O)NC3(CO)CCOCC3)c2c1` [Cpd 058, N-[4-(hydroxymethyl)oxan-4-yl]-2-methyl-5-[(1-methyl-1H-pyrazol-5-yl)methoxy]-2H-indazole-3-carboxamide] reads below 4.70; that for `Cn1nc2ccc(OCc3ccccn3)cc2c1C(=O)NC(C)(CO)CC(F)(F)F` (single isomer, unassigned) [Cpd 255 - En2, 2-methyl-5-[(pyridin-2-yl)methoxy]-N-(4,4,4-trifluoro-1-hydroxy-2-methylbutan-2-yl)-2H-indazole-3-carboxamide], 4.70 to 6.00. The result for `Cn1nc2ccc(OCc3ccccn3)cc2c1C(=O)NC(CO)CO` [Cpd 259, N-(1,3-dihydroxypropan-2-yl)-2-methyl-5-[(pyridin-2-yl)methoxy]-2H-indazole-3-carboxamide] reads 4.70 to 6.00.

As to `Cn1nc2ccc(OCc3ccccn3)cc2c1C(=O)NCC(F)(F)c1ccccc1` [Cpd 208, N-(2,2-difluoro-2-phenylethyl)-2-methyl-5-[(pyridin-2-yl)methoxy]-2H-indazole-3-carboxamide], the pIC50 is below 4.70. In the case of `Cn1nc2ccc(OCc3ccccc3F)cc2c1C(=O)NC1(CO)CCNC1=O` (single isomer, unassigned) [Cpd 171 -En2] it was 4.70 to 6.00; in that of `Cc1ccc(COc2ccc3nn(C)c(C(=O)NC4(CO)CCNC4=O)c3c2)cn1` (single isomer, unassigned) [Cpd 169 - En2], above 6.00. The result for `Cc1ncc(COc2ccc3nn(C)c(C(=O)NC(C)(C)C(N)=O)c3c2)s1` [Cpd 103, 2-methyl-2-({2-methyl-5-[(2-methyl-1,3-thiazol-5-yl)methoxy]-2H-indazol-3-yl}formamido)propanamide] reads 4.70 to 6.00. In the case of `CN1CC(NC(=O)c2c3cc(OCc4cccnc4C(F)(F)F)ccc3nn2C)C(F)(F)C1` (centres unmarked) [Cpd 081, N-(4,4-difluoro-1-methylpyrrolidin-3-yl)-2-methyl-5-{[2-(trifluoromethyl)pyridin-3-yl]methoxy}-2H-indazole-3-carboxamide] it was 4.70 to 6.00; in that of `Cn1nc2ccc(OCc3ccccn3)cc2c1C(=O)NCc1cccc(OC(F)F)c1` [Cpd 210, N-{[3-(difluoromethoxy)phenyl]methyl}-2-methyl-5-[(pyridin-2-yl)methoxy]-2H-indazole-3-carboxamide], below 4.70. `Cc1ncc(COc2ccc3nn(C)c(C(=O)N[C@@H](CO)C(N)=O)c3c2)o1` [Cpd 141, (2S)-3-hydroxy-2-({2-methyl-5-[(2-methyl-1,3-oxazol-5-yl)methoxy]-2H-indazol-3-yl}formamido)propanamide] showed a pIC50 above 6.00. In the case of `Cn1nc2ccc(OCc3ccccn3)cc2c1C(=O)NC1CNCC1C(F)(F)F` (single isomer, unassigned) [Cpd 246 - En1] it was below 4.70; in that of `Cc1ncc(COc2ccc3nn(C)c(C(=O)N[C@@H](C)C(N)=O)c3c2)s1` [Cpd 119, (2S)-2-({2-methyl-5-[(2-methyl-1,3-thiazol-5-yl)methoxy]-2H-indazol-3-yl}formamido)propanamide], 4.70 to 6.00; in that of `Cn1nc2ccc(OCc3ccccc3F)cc2c1C(=O)NC(C)(CO)C(N)=O` (single isomer, unassigned) [Cpd 194 - En1], above 6.00. In turn, `Cn1nc2ccc(OCc3ccccn3)cc2c1C(=O)NC(C)(CO)CC(F)F` (single isomer, unassigned) [Cpd 201 - En1, N-(4,4-difluoro-1-hydroxy-2-methylbutan-2-yl)-2-methyl-5-[(pyridin-2-yl)methoxy]-2H-indazole-3-carboxamide] gave a pIC50 above 6.00. Compound `Cc1ncsc1COc1ccc2nn(C)c(C(=O)N[C@H](CO)C(N)=O)c2c1` [Cpd 113, (2R)-3-hydroxy-2-({2-methyl-5-[(4-methyl-1,3-thiazol-5-yl)methoxy]-2H-indazol-3-yl}formamido)propanamide] gave a negative-log IC50 (pIC50) of 4.70 to 6.00.

As for `Cn1nc2ccc(OCc3ccccc3)cc2c1C(=O)N[C@@H]1COC[C@H]1O` (single isomer, unassigned) [Cpd 011 - Dia1], the pIC50 was 4.70 to 6.00. The result for `CCn1nc2ccc(OCc3ccccn3)cc2c1C(=O)NC(C)(CO)C(N)=O` (single isomer, unassigned) [Cpd 188 - En2, 2-({2-ethyl-5-[(pyridin-2-yl)methoxy]-2H-indazol-3-yl}formamido)-3-hydroxy-2-methylpropanamide] reads above 6.00; that for `Cn1nc2ccc(OCC3CCCC3)cc2c1C(=O)N[C@@H](CO)C(N)=O` [Cpd 143, (2S)-2-{[5-(cyclopentylmethoxy)-2-methyl-2H-indazol-3-yl]formamido}-3-hydroxypropanamide], above 6.00; that for `Cn1nc2ccc(OCc3ccccc3)cc2c1C(=O)NC1(CO)CC1` [Cpd 004, 5-(benzyloxy)-N-[1-(hydroxymethyl)cyclopropyl]-2-methyl-2H-indazole-3-carboxamide], 4.70 to 6.00.

With `Cn1nc2ccc(OCc3ccccc3)cc2c1C(=O)O` [Cpd 197, 5-(benzyloxy)-2-methyl-2H-indazole-3-carboxylic acid], the pIC50 is 4.70 to 6.00.

Compound `Cn1nc2ccc(OCc3ccccc3)cc2c1C(=O)NC(CO)C(F)(F)F` (centres unmarked) [Cpd 091, 5-(benzyloxy)-2-methyl-N-(1,1,1-trifluoro-3-hydroxypropan-2-yl)-2H-indazole-3-carboxamide] gave a pIC50 of 4.70 to 6.00. `Cn1nc2ccc(OCC3COC3)cc2c1C(=O)NC(C)(CO)C(N)=O` (single isomer, unassigned) [Cpd 167 - En1] showed a pIC50 below 4.70. Consider `COc1ccc2nn(C)c(C(=O)NC(C)(CO)C(N)=O)c2c1` (single isomer, unassigned) [Cpd 172 - En2], for which the pIC50 was 4.70 to 6.00. `Cn1nc2ccc(OCc3ccccc3F)cc2c1C(=O)NC1(CO)CCC1` [Cpd 094, 5-[(2-fluorophenyl)methoxy]-N-[1-(hydroxymethyl)cyclobutyl]-2-methyl-2H-indazole-3-carboxamide]: the pIC50 was 4.70 to 6.00.

For `Cn1nc2ccc(OCC3CCC3)cc2c1C(=O)NC1(CO)CCNC1=O` (single isomer, unassigned) [Cpd 159 - En1], the pIC50 is 4.70 to 6.00. As for `Cn1nc2ccc(OCC3CC3)cc2c1C(=O)N[C@@H](CO)C(N)=O` [Cpd 137, (2S)-2-{[5-(cyclopropylmethoxy)-2-methyl-2H-indazol-3-yl]formamido}-3-hydroxypropanamide], the pIC50 was above 6.00. The result for `Cc1ncc(COc2ccc3nn(C)c(C(=O)NC4CCOCC4)c3c2)s1` [Cpd 120, 2-methyl-5-[(2-methyl-1,3-thiazol-5-yl)methoxy]-N-(oxan-4-yl)-2H-indazole-3-carboxamide] reads below 4.70. The result for `Cn1nc2ccc(OCC3(C#N)CC3)cc2c1C(=O)NC(C)(CO)CO` [Cpd 146, 5-[(1-cyanocyclopropyl)methoxy]-N-(1,3-dihydroxy-2-methylpropan-2-yl)-2-methyl-2H-indazole-3-carboxamide] reads below 4.70; that for `Cn1nc2ccc(OCc3ccccc3C(F)F)cc2c1C(=O)NC(C)(CO)C(N)=O` (single isomer, unassigned) [Cpd 191 - En1], above 6.00. As to `C[C@@H](NC(=O)c1c2cc(OCC3CC3)ccc2nn1C)C(N)=O` [Cpd 121, (2R)-2-{[5-(cyclopropylmethoxy)-2-methyl-2H-indazol-3-yl]formamido}propanamide], the pIC50 is above 6.00.

Consider `CN(C)CC(C)(C)CNC(=O)c1c2cc(OCc3ccccn3)ccc2nn1C` [Cpd 207, N-[3-(dimethylamino)-2,2-dimethylpropyl]-2-methyl-5-[(pyridin-2-yl)methoxy]-2H-indazole-3-carboxamide], for which the pIC50 was below 4.70. In turn, `CN(C)C1(CNC(=O)c2c3cc(OCc4ccccc4)ccc3nn2C)CCC1` [Cpd 078, 5-(benzyloxy)-N-{[1-(dimethylamino)cyclobutyl]methyl}-2-methyl-2H-indazole-3-carboxamide] had a pIC50 of 4.70 to 6.00. In the case of `Cn1nc2ccc(OCc3ccccn3)cc2c1C(=O)NC1(CO)CCNC1=O` (single isomer, unassigned) [Cpd 253 - En2], the pIC50 was 4.70 to 6.00.

The term pIC50 denotes the negative decadic logarithm of the IC50, by convention in mol/L. The low end stands for a large IC50, the high end for a small IC50.
